# Legend:
# [1] = system: heterozygous MECP2knockout mice (HET); assay: Rotarod; assay type: in vivo
# Protocol: Studies employed wild type (WT) mice and heterozygous MECP2knockout mice (HET) All mice were provided by Jackson Laboratory, Bar Harbor, Maine. HET mice were Bird mice (Jackson Laboratories, Bar Harbor, ME, B6.129P2(C)-Mecp2^tm1.1Bird/Stock Number: 003890) were obtained by crossing het females with wild type (WT) males (C57B/6J). […] Mecp2 females testing at ˜8 and ˜12 weeks of age WT—vehicle (0.25% MC/dH2O) HET—vehicle (0.25% MC/dH2O) HET—A2-733 (10 mg/kg) HET—A2-733 (30 mg/kg) Chronic dosing (p.o.) daily, starting at ˜5.5 weeks of age and continuing through the 12-week behavioral testing time point 60 min pre-treatment during behavioral testing. The rotarod performance test is a performance test based on a rotating rod with forced motor activity being applied, usually by a rodent. The test measures parameters such as riding time (seconds) or endurance. Some of the functions of the test include evaluating balance, grip strength, and motor coordination of the subjects; especially in testing the effect of experimental drugs or after traumatic brain injury. Mice are placed on the rotarod apparatus (PsychoGenics, Tarrytown New York) consisting of a rod that rotates at a constant or variable and accelerating speed of 4 rpm. Once a mouse loses its balance and falls onto an underlying platform the timer automatically stops. Mice are exposed to the apparatus for 5 min training at a constant speed and placed back on the rod after each fall. After a rest period of at least 1 hr. animals are placed back on the rotarod apparatus for testing. Once all animals in a test session are loaded on the rod, the rotarod apparatus is placed on accelerating speed (0-40 rpm) over 5 min and the time until the first fall is recorded. The test is repeated three consecutive times per animal. For each test session, the RPM score at time of fall off the rod are recorded.
# [2] = system: heterozygous MECP2knockout mice (HET); assay: NeuroCube gait analysis; assay type: in vivo
# Protocol: Studies employed wild type (WT) mice and heterozygous MECP2knockout mice (HET) All mice were provided by Jackson Laboratory, Bar Harbor, Maine. HET mice were Bird mice (Jackson Laboratories, Bar Harbor, ME, B6.129P2(C)-Mecp2^tm1.1Bird/Stock Number: 003890) were obtained by crossing het females with wild type (WT) males (C57B/6J). […] Mecp2 females testing at ˜8 and ˜12 weeks of age WT—vehicle (0.25% MC/dH2O) HET—vehicle (0.25% MC/dH2O) HET—A2-733 (10 mg/kg) HET—A2-733 (30 mg/kg) Chronic dosing (p.o.) daily, starting at ˜5.5 weeks of age and continuing through the 12-week behavioral testing time point 60 min pre-treatment during behavioral testing. Neurological testing via a platform that employs computer vision to detect changes in gait geometry and gait dynamics in rodent models of neurological disorders, pain, and neuropathies. Complex bio-informatics algorithms similar to those used in SmartCube® are employed to detect a disease phenotype and screen compounds. (NeuroCube, PsychoGenics, Tarrytown NY) A platform that employs computer vision to detect changes in gait geometry and gait dynamics in rodent models of neurological disorders, pain, and neuropathies. Mice are allowed to walk in the chamber for 5 min. When the paw touches the screen, LED light reflects creating bright spots. Images are captured and processed using proprietary computer vision and bio-informatics data mining algorithms.
# [3] = system: Rett syndrome; assay: Example 3 seizure reduction in Rett syndrome patient; assay type: in vivo, human; conditions: oral 2 mg daily, after 5 days, 6 to 10 seizures per day before therapy
# Protocol: A person presents with Rett syndrome. They experience 6 to 10 seizures per day prior to commencing therapy. They begin treatment with oral doses of A2-73 at 2 mg daily. After 5 days of treatment, the number of daily seizures is reduced to 3 or fewer.
# [4] = system: Rett syndrome; assay: Example 4 eating and choking in Rett syndrome patient; assay type: in vivo, human; conditions: person, oral 40 mg every other day, after 60 days
# Protocol: A person presents with Rett syndrome. […] They begin treatment with oral doses of A2-73 at 40 mg every other day.
# [5] = system: multiple sclerosis; assay: Example 8 gadolinium-enhanced MRI lesions in multiple sclerosis patient; assay type: in vivo, human; conditions: person, oral 40 mg every fifth day, weeks 12, 16, 20 and 24 vs 12 week pretreatment MRI
# Protocol: A person presents with multiple sclerosis. They begin treatment with oral doses of A2-73 at 40 mg every fifth day.
# [6] = target: sigma-1 receptors (Homo sapiens, UniProt Q99720); conditions: believed to bind; cited from earlier work
# [7] = 8 weeks of age, 10 and 30 mg/kg p.o. daily, HET mice
# [8] = 12 weeks of age, both doses (10 and 30 mg/kg p.o. daily)
# sigma-1 receptors, sequence (Q99720 whole entry): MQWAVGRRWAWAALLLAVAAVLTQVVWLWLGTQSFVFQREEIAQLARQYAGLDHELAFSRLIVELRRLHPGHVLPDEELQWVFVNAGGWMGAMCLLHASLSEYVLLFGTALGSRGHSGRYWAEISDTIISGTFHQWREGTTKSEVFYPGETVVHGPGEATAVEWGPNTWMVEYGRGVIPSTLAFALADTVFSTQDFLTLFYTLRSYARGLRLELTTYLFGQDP
smiles,measurement,setting,value
"CN(C)CC1CCOC1(c1ccccc1)c1ccccc1.Cl (stereo not drawn) [A2-73, tetrahydro-N,N-dimethyl-2,2-diphenyl-3-furanmethanamine hydrochloride]","rotarod speed at fall, treatment effect",[1]; [7],No significant treatment effects
same,"rotarod time to fall, treatment effect",[1]; [7],No significant treatment effects
same,rotarod speed at fall vs vehicle-treated mutant mice,[1]; [8],fell at higher speeds
same,rotarod time to fall vs vehicle-treated mutant mice,[1]; [8],took more time to fall off the rod
same,"rotarod speed at fall, without outliers","[1]; 12 weeks of age, higher dose (30 mg/kg), outliers removed",effect at the higher dose disappeared
same,"NeuroCube GAIT, Het vehicle v. Het AV2-73","[2]; 8 week, 10 mg/kg, p > 0.09","63, p > 0.09"
same,"NeuroCube Body Motion, Het vehicle v. Het AV2-73","[2]; 8 week, 10 mg/kg, p > 0.20","60, p > 0.20"
same,"NeuroCube Correlation, Het vehicle v. Het AV2-73","[2]; 8 week, 10 mg/kg, p > 0.40","56, p > 0.40"
same,"NeuroCube Paw Positioning, Het vehicle v. Het AV2-73","[2]; 8 week, 10 mg/kg, p > 0.57","53, p > 0.57"
same,"NeuroCube Overall, Het vehicle v. Het AV2-73","[2]; 8 week, 10 mg/kg, p > 0.69","53, p > 0.69"
same,"NeuroCube Paw Features, Het vehicle v. Het AV2-73","[2]; 8 week, 10 mg/kg, p > 0.78","52, p > 0.78"
same,"NeuroCube Body Motion, Het vehicle v. Het AV2-73","[2]; 8 week, 30 mg/kg, p < 0.003","81, p < 0.003"
same,"NeuroCube Correlation, Het vehicle v. Het AV2-73","[2]; 8 week, 30 mg/kg, p < 0.005","76, p < 0.005"
same,"NeuroCube GAIT, Het vehicle v. Het AV2-73","[2]; 8 week, 30 mg/kg, p < 0.05","69, p < 0.05"
same,"NeuroCube Overall, Het vehicle v. Het AV2-73","[2]; 8 week, 30 mg/kg, p > 0.24","62, p > 0.24"
same,"NeuroCube Paw Positioning, Het vehicle v. Het AV2-73","[2]; 8 week, 30 mg/kg, p > 0.36","57, p > 0.36"
same,"NeuroCube Paw Features, Het vehicle v. Het AV2-73","[2]; 8 week, 30 mg/kg, p > 0.56","55, p > 0.56"
same,NeuroCube separation versus Het vehicle,[2]; 8 weeks of age,no separation
same,recovery of the overall signature,"[2]; 8 weeks of age, NeuroCube",9-17%
same,"NeuroCube GAIT, Het vehicle v. Het AV2-73","[2]; 12 week, 10 mg/kg, p > 0.29","57, p > 0.29"
same,"NeuroCube Paw Features, Het vehicle v. Het AV2-73","[2]; 12 week, 10 mg/kg, p > 0.35","56, p > 0.35"
same,"NeuroCube Paw Positioning, Het vehicle v. Het AV2-73","[2]; 12 week, 10 mg/kg, p > 0.57","53, p > 0.57"
same,"NeuroCube Correlation, Het vehicle v. Het AV2-73","[2]; 12 week, 10 mg/kg, p > 0.70","53, p > 0.70"
same,"NeuroCube Overall, Het vehicle v. Het AV2-73","[2]; 12 week, 10 mg/kg, p > 0.70","53, p > 0.70"
same,"NeuroCube Body Motion, Het vehicle v. Het AV2-73","[2]; 12 week, 10 mg/kg, p > 0.71","52, p > 0.71"
same,"NeuroCube Correlation, Het vehicle v. Het AV2-73","[2]; 12 week, 30 mg/kg, p < 0.03","69, p < 0.03"
same,"NeuroCube Body Motion, Het vehicle v. Het AV2-73","[2]; 12 week, 30 mg/kg, p < 0.04","68, p < 0.04"
same,"NeuroCube Overall, Het vehicle v. Het AV2-73","[2]; 12 week, 30 mg/kg, p > 0.21","61, p > 0.21"
same,"NeuroCube GAIT, Het vehicle v. Het AV2-73","[2]; 12 week, 30 mg/kg, p > 0.37","57, p > 0.37"
same,"NeuroCube Paw Positioning, Het vehicle v. Het AV2-73","[2]; 12 week, 30 mg/kg, p > 0.62","53, p > 0.62"
same,"NeuroCube Paw Features, Het vehicle v. Het AV2-73","[2]; 12 week, 30 mg/kg, p > 0.65","53, p > 0.65"
same,number of daily seizures,[3],≤ 3
same,instances of choking,[4],reduced
same,weight gain,[4],10%
same,total number of gadolinium-enhanced lesions on MRI,[5],substantially reduced
same,affinity for sigma-1 receptors,[6],low micromolar range
